We go through 13 compounds from patent US20140274688A1, “MOLECULES HAVING CERTAIN PESTICIDAL UTILITIES, AND INTERMEDIATES, COMPOSITIONS, AND PROCESSES RELATED THERETO” (DOW AGROSCIENCES LLC, priority 2013, published 2014).

The test system of data set [1] is Cabbage Looper (Trichoplusia ni) ("CL"). Description: Bioassay on Cabbage Looper (CL), 128-well diet tray assay, percent mortality. In kind it is in vivo. The settings on record: for CL rating (percent mortality class): Cabbage Looper, 128-well diet tray assay; for pest or weed control at 50 µg/cm2: Trichoplusia ni, read-out: CL. A digest of the protocol: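 Larvae held in covered diet trays at 25 °C, 14:10 light-dark, for five to seven days. Percent mortality scored per well and averaged over eight wells.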

Data set [2] has as its system Beet Armyworm (Spodoptera exigua) ("BAW"). Description: Bioassay on Beet Armyworm (BAW), 128-well diet tray assay, percent mortality. In kind it is in vivo. The conditions noted are these: for BAW rating (percent mortality class): Beet Armyworm, 128-well diet tray assay; for pest or weed control at 50 µg/cm2: Spodoptera exigua, read-out: BAW. A digest of the protocol: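 Larvae in covered diet trays held at 25 °C, 14:10 light-dark, for five to seven days. Percent mortality scored per well and averaged over eight wells per treatment.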

The test system of data set [3] is Green Peach Aphid ("GPA") (Myzus persicae). Briefly: Bioassay on Green Peach Aphid (GPA), foliar spray on cabbage seedlings, corrected % control. The settings on record: foliar spray on cabbage seedlings. In kind it is in vivo.
In data set [4] the test system is Yellow Fever Mosquito "YFM" (Aedes aegypti). The conditions noted are these: for YFM rating (mortality class): Yellow Fever Mosquito larvae, 96-well plates; for YFM: Table ABC (P), rating of mortality, Yellow Fever Mosquito.

In the case of `CC(C)c1ccccc1NC(=S)NC(=O)NCCc1ccc(-c2ncn(-c3ccc(OC(F)(F)F)cc3)n2)cc1` [F2, N-[2-isopropylphenyl]-N-[2-(4-{1-[4-(trifluoromethoxy)phenyl]-1H-1,2,4-triazol-3-yl}phenyl)ethyl]dicarbonimidothioic diamide], the “CL rating (percent mortality class)” value in data set [1] is recorded as “A (50-100)”. Moreover, the “BAW rating (percent mortality class)” value in data set [2] is “A (50-100)”. Besides, the “GPA rating (corrected % control class)” value in data set [3] is “B (More than 0-Less than 80)”. Moreover, the “YFM rating (mortality class)” value in data set [4] is “A (80-100)”.
Take `Cc1ccc(C(C)C)c(N2C(=O)CS/C2=N\C(=O)NCCc2ccc(-c3ncn(-c4ccc(OC(F)(F)F)cc4)n3)cc2)c1` [F5, (Z)-1-(3-(2-isopropyl-5-methylphenyl)-4-oxothiazolidin-2-ylidene)-3-(4-(1-(4-(trifluoromethoxy)phenyl)-1H-1,2,4-triazol-3-yl)phenethyl)urea]: the “CL rating (percent mortality class)” value in data set [1] is recorded as “A (50-100)”. For the same compound, the “BAW rating (percent mortality class)” value in data set [2] is listed as “A (50-100)”. Also, in data set [3], the “GPA rating (corrected % control class)” value is listed as “A (80-100)”. Besides, in data set [4], the “YFM rating (mortality class)” value is “A (80-100)”.
For `COc1ccc(C(C)C)c(N2C(=O)CS/C2=N\C(=O)NCCc2ccc(-c3ncn(-c4ccc(OC(F)(F)F)cc4)n3)cc2)c1` [F6, (Z)-1-(3-(2-isopropyl-5-methoxyphenyl)-4-oxothiazolidin-2-ylidene)-3-(4-(1-(4-(trifluoromethoxy)phenyl)-1H-1,2,4-triazol-3-yl)phenethyl)urea], the “CL rating (percent mortality class)” value in data set [1] is “A (50-100)”. For the same compound, in data set [2], the “BAW rating (percent mortality class)” value is on record as “A (50-100)”. For the same compound, the “GPA rating (corrected % control class)” value in data set [3] is recorded as “B (More than 0-Less than 80)”. For the same compound, the “YFM rating (mortality class)” value in data set [4] is recorded as “A (80-100)”.
In the case of `CC(Cc1ccc(-c2ncn(-c3ccc(OC(F)(F)F)cc3)n2)cc1)NC(=O)/N=C1\SCC(=O)N1c1ccccc1C(C)C` (centres unmarked) [F7, (Z)-1-(3-(2-isopropylphenyl)-4-oxothiazolidin-2-ylidene)-3-(1-(4-(1-(4-(trifluoromethoxy)phenyl)-1H-1,2,4-triazol-3-yl)phenyl)propan-2-yl)urea], the “CL rating (percent mortality class)” value in data set [1] is “A (50-100)”. In data set [2], the “BAW rating (percent mortality class)” value is reported as “A (50-100)”. Moreover, the “GPA rating (corrected % control class)” value in data set [3] is reported as “B (More than 0-Less than 80)”. Further, the “YFM rating (mortality class)” value in data set [4] is reported as “A (80-100)”.
For `Cc1ccc(C(C)C)c(N2C(=O)CS/C2=N\C(=O)NCC(C)c2ccc(-c3ncn(-c4ccc(OC(F)(F)F)cc4)n3)cc2)c1` (centres unmarked) [F10, (Z)-1-(3-(2-isopropyl-5-methylphenyl)-4-oxothiazolidin-2-ylidene)-3-(2-(4-(1-(4-(trifluoromethoxy)phenyl)-1H-1,2,4-triazol-3-yl)phenyl)propyl)urea], the “CL rating (percent mortality class)” value in data set [1] is reported as “A (50-100)”. Further, in data set [2], the “BAW rating (percent mortality class)” value is “A (50-100)”. Further, the “GPA rating (corrected % control class)” value in data set [3] is “B (More than 0-Less than 80)”. In addition, the “YFM rating (mortality class)” value in data set [4] is recorded as “A (80-100)”.
On to `COc1ccc(C(C)C)c(N2C(=O)CS/C2=N\C(=O)NCCc2ccc(-c3ncn(-c4ccc(C(F)(F)F)cc4)n3)cc2)c1` [P53, (Z)-1-(3-(2-isopropyl-5-methoxyphenyl)-4-oxothiazolidin-2-ylidene)-3-(4-(1-(4-(trifluoromethyl)phenyl)-1H-1,2,4-triazol-3-yl)phenethyl)urea], for which the pest or weed control at 50 µg/cm2 in data set [1] and in data set [2] was 50 to 100% in each case. In data set [4], the YFM entry is recorded as “A (80-100)”.
As for `Cc1ccc(C(C)C)c(N2C(=O)C(C)S/C2=N\C(=O)NCCc2ccc(-c3ncn(-c4ccc(OC(F)(F)F)cc4)n3)cc2)c1` (centres unmarked) [P57, (Z)-1-(3-(2-isopropyl-5-methylphenyl)-5-methyl-4-oxothiazolidin-2-ylidene)-3-(4-(1-(4-(trifluoromethoxy)phenyl)-1H-1,2,4-triazol-3-yl)phenethyl)urea], the pest or weed control at 50 µg/cm2 in data set [1] and in data set [2] was 50 to 100% throughout. Moreover, the YFM result in data set [4] is “A (80-100)”.
On to `Cc1ccc(C(C)C)c(-n2c(C)cs/c2=N\C(=O)NCCc2ccc(-c3ncn(-c4ccc(OC(F)(F)F)cc4)n3)cc2)c1` [P65, (Z)-1-(3-(2-isopropyl-5-methylphenyl)-4-methylthiazol-2(3H)-ylidene)-3-(4-(1-(4-(trifluoromethoxy)phenyl)-1H-1,2,4-triazol-3-yl)phenethyl)urea], for which the pest or weed control at 50 µg/cm2 in data set [1] and in data set [2] was 50 to 100% each time. Moreover, the YFM result in data set [4] is “A (80-100)”.
With `Cc1ccccc1N1C(=O)CS/C1=N\C(=O)NCCCCc1ccc(-c2ncn(-c3ccc(OC(F)(F)F)cc3)n2)cc1` [P144, (Z)-1-(4-oxo-3-(o-tolyl)thiazolidin-2-ylidene)-3-(4-(4-(1-(4-(trifluoromethoxy)phenyl)-1H-1,2,4-triazol-3-yl)phenyl)butyl)urea], the pest or weed control at 50 µg/cm2 in data set [1] and in data set [2] was 50 to 100% in each case. The YFM entry in data set [4] was “A (80-100)”.
Take `Cc1ccc(N2C(=O)CS/C2=N\C(=O)NCCCCc2ccc(-c3ncn(-c4ccc(OC(F)(F)F)cc4)n3)cc2)c(C(C)C)c1` [P154, (Z)-1-(3-(2-isopropyl-4-methylphenyl)-4-oxothiazolidin-2-ylidene)-3-(4-(4-(1-(4-(trifluoromethoxy)phenyl)-1H-1,2,4-triazol-3-yl)phenyl)butyl)urea]: the pest or weed control at 50 µg/cm2 in data set [1] and in data set [2] was 50 to 100% each time. For the same compound, the YFM entry in data set [4] was “B (More than 0-Less than 80)”.
For the compound `Cc1ccc(C(C)C)c(N2C(=O)CS/C2=N\C(=O)NCCC#Cc2ccc(-c3ncn(-c4ccc(OC(F)(F)F)cc4)n3)cc2)c1` [P160, (Z)-1-(3-(2-isopropyl-5-methylphenyl)-4-oxothiazolidin-2-ylidene)-3-(4-(4-(1-(4-(trifluoromethoxy)phenyl)-1H-1,2,4-triazol-3-yl)phenyl)but-3-yn-1-yl)urea], the pest or weed control at 50 µg/cm2 in data set [1] and in data set [2] was 50 to 100% each time. The YFM entry in data set [4] was “B (More than 0-Less than 80)”.
For the compound `CC(C)c1ccccc1N1C(=O)CS/C1=N\C(=O)NCC(C)c1ccc(-c2ncn(-c3ccc(OC(F)(F)F)cc3)n2)cc1` (centres unmarked) [P205, (Z)-1-(3-(2-isopropylphenyl)-4-oxothiazolidin-2-ylidene)-3-(2-(4-(1-(4-(trifluoromethoxy)phenyl)-1H-1,2,4-triazol-3-yl)phenyl)propyl)urea], the pest or weed control at 50 µg/cm2 in data set [1] and in data set [2] was 50 to 100% in each case. Also, the YFM entry in data set [4] is “A (80-100)”.
For the compound `COc1ccc(C(C)C)c(N2C(=O)CS/C2=N\C(=O)NCC(C)c2ccc(-c3ncn(-c4ccc(OC(F)(F)F)cc4)n3)cc2)c1` (centres unmarked) [P679, (Z)-1-(3-(2-isopropyl-5-methoxyphenyl)-4-oxothiazolidin-2-ylidene)-3-(2-(4-(1-(4-(trifluoromethoxy)phenyl)-1H-1,2,4-triazol-3-yl)phenyl)propyl)urea], the pest or weed control at 50 µg/cm2 in data set [1] and in data set [2] was 50 to 100% each time. For the same compound, the YFM result in data set [4] is reported as “A (80-100)”.
